Reference: patent publication US20170015555A1, “LONG-TERM PRESERVATION AND NOVEL APPLICATION OF CHLOROUS ACID AQUEOUS SOLUTION FORMULATION” (priority 2013, published 2017)

Tests used:
Format in all cases: cell-based
[1] = system: E. coli: Escherichia coli IF03927; assay: Sterilizing effect on floor surface after wiping off imitation vomit, rubber mattress; conditions: 1000 ppm available chlorine
Excerpt: (§1) 1) Chlorous acid aqueous solution formulation (see Example 1: Table 11) Treatment sheet (material: 100% cotton): (about 27×40 cm) *Impregnated at a ratio of weight of treatment sheet (g): amount of liquid (ml)=1:3 2) Imitation vomit Miso solution: adjusted to pH of 2 with hydrochloric acid 3) Test Microbes that were Used E. coli: Escherichia coli IF03927 Staphylococcus aureus: Staphylococcus aureus IF0 12732 Thermoduric Microbes (Bacillus cereus): Bacillus cereus NBRC15305 Microbes of the genus Salmonella: Salmonella Enteritidis IF03313 Enterohemorrhagic Escherichia coli O157: Escherichia coli O157 Enterohemorrhagic Escherichia coli O111: Escherichia coli O111 Enterohemorrhagic Escherichia coli O26: Escherichia coli O26
(§2) (1) Imitation vomit was spread in an area about the size of an A4 sheet. (2) 5 agent solution-containing treatment sheets were laid thereon. (3) The imitation vomit was wiped off. (4) A cotton swab was soaked with sterile saline. A portion where imitation vomit was spread was scrubbed with the cotton swab to collect microbes remaining on the floor. After suspending in saline, the solution was spread on a petri dish and cultured. The number of each of the microbes was measured. (5) Test operations 3 and 4 were repeated a total of 7 times (repeated until the imitation vomit could be removed completely).

[2] = system: Staphylococcus aureus IF0 12732; assay: as above; conditions: 1000 ppm available chlorine
Excerpt: as §1, §2

[3] = system: Enterohemorrhagic Escherichia coli O26; assay: as above; conditions: 1000 ppm available chlorine
Excerpt: as §1, §2

[4] = system: Bacillus cereus NBRC15305; assay: as above; conditions: 1000 ppm available chlorine
Excerpt: as §1, §2

[5] = system: Enterohemorrhagic Escherichia coli O157; assay: as above; conditions: 1000 ppm available chlorine
Excerpt: as §1, §2

[6] = system: Microbes of the genus Salmonella: Salmonella Enteritidis IF03313; assay: as above; conditions: 1000 ppm available chlorine
Excerpt: as §1, §2

[7] = system: Enterohemorrhagic Escherichia coli O111; assay: as above
Excerpt: as §1, §2

[8] = system: Thermoduric Microbes (Bacillus cereus): Bacillus cereus NBRC15305; assay: Permeability of pathogenic microbes when treatment sheets were laid on vomit; design: unit not given here; conditions: 1000 ppm available chlorine
Excerpt: 1) Chlorous acid aqueous solution formulation (see Example 1: Table 11) Treatment sheet (material: 100% cotton): (about 27×40 cm) *Impregnated at a ratio of weight of treatment sheet (g): amount of liquid (ml)=1:3 2) Imitation vomit (hereinafter, referred to as vomit) Miso solution: adjusted to pH 2 with hydrochloric acid 3) Test Microbes that were used E. coli: Escherichia coli IF03927 Staphylococcus aureus: Staphylococcus aureus IF0 12732 Thermoduric Microbes (Bacillus cereus): Bacillus cereus NBRC15305 Microbes of the genus Salmonella: Salmonella Enteritidis IF03313 Enterohemorrhagic Escherichia coli 0157: Escherichia coli 0157 Enterohemorrhagic Escherichia coli 0111: Escherichia coli 0111 Enterohemorrhagic Escherichia coli 026: Escherichia coli O26
Permeability of pathogenic microbes into a treatment sheet when treating vomit was examined to compare effects of preventing secondary contamination. (1) Imitation vomit is spread in an area about the size of an A4 sheet. (2) 30 agent solution-containing treatment sheets were laid thereon and left standing for 10 minutes. (3) Treatment sheets were removed one at a time from the top. After diluting with saline, the sample was spread in a petri dish and cultured.

[9] = system: pathogenic microbes; assay: Sterilizing effect on floor surface when treating vomit, summary over all tested microbes and floors
Excerpt: as §1
as §2, with “(5) Test operations 3 and 4 were repeated a total of 7 times (repeated until the imitation vomit could be removed completely).” left out
(1) Imitation vomit was spread in an area about the size of an A4 sheet. […] The number of each of the microbes was measured. […]

[10] = 1000 ppm available chlorine, stored at 25° C. Day 0
[11] = 1000 ppm, stored at 25° C. Day 7

OCl [Sodium Hypochlorite, sodium hypochlorite]
Microbe count on floor, wiped 1 Time ([1]; Day 0 at 25° C.): <10 | Microbe count on floor, wiped 2 Times ([1]; Day 0 at 25° C.): <10 | Microbe count on floor, wiped 3 Times ([1]; Day 0 at 25° C.): <10 | Microbe count on floor, wiped 1 Time ([1]; Day 7 at 25° C.): 2.3 × 10^4 | Microbe count on floor, wiped 2 Times ([1]; Day 7 at 25° C.): 7.8 × 10^3 | Microbe count on floor, wiped 3 Times ([1]; Day 7 at 25° C.): 2.1 × 10^3 | Microbe count on floor, wiped 1 Time ([2]; Day 0 at 25° C.): <10 | Microbe count on floor, wiped 2 Times ([2]; Day 0 at 25° C.): <10 | Microbe count on floor, wiped 3 Times ([2]; Day 0 at 25° C.): <10 | Microbe count on floor, wiped 1 Time ([2]; Day 7 at 25° C.): 8.7 × 10^6 | Microbe count on floor, wiped 2 Times ([2]; Day 7 at 25° C.): 7.3 × 10^3 | Microbe count on floor, wiped 3 Times ([2]; Day 7 at 25° C.): 3.3 × 10^3 | microbes remaining, wiped 1 Time ([3]; stored at 25° C. Day 0): <10 | microbes remaining, wiped 2 Times ([3]; stored at 25° C. Day 0): <10 | microbes remaining, wiped 3 Times ([3]; stored at 25° C. Day 0): <10 | microbes remaining, wiped 1 Time ([3]; stored at 25° C. Day 7): 3.2 × 10^3 | microbes remaining, wiped 2 Times ([3]; stored at 25° C. Day 7): 1.0 × 10^3 | microbes remaining, wiped 3 Times ([3]; stored at 25° C. Day 7): 3.0 × 10^2 | microbes remaining, wiped 1 Time ([4]; stored at 25° C. Day 0): <10 | microbes remaining, wiped 2 Times ([4]; stored at 25° C. Day 0): <10 | microbes remaining, wiped 3 Times ([4]; stored at 25° C. Day 0): <10 | microbes remaining, wiped 1 Time ([4]; stored at 25° C. Day 7): 2.1 × 10^3 | microbes remaining, wiped 2 Times ([4]; stored at 25° C. Day 7): 6.5 × 10^2 | microbes remaining, wiped 3 Times ([4]; stored at 25° C. Day 7): 1.8 × 10^2 | microbes remaining, wiped 1 Time ([5]; stored at 25° C. Day 0): <10 | microbes remaining, wiped 2 Times ([5]; stored at 25° C. Day 0): <10 | microbes remaining, wiped 3 Times ([5]; stored at 25° C. Day 0): <10 | microbes remaining, wiped 1 Time ([5]; stored at 25° C. Day 7): 4.2 × 10^3 | microbes remaining, wiped 2 Times ([5]; stored at 25° C. Day 7): 1.2 × 10^3 | microbes remaining, wiped 3 Times ([5]; stored at 25° C. Day 7): 1.1 × 10^2 | microbes remaining, wiped 1 Time ([6]; stored at 25° C. Day 0): <10 | microbes remaining, wiped 2 Times ([6]; stored at 25° C. Day 0): <10 | microbes remaining, wiped 3 Times ([6]; stored at 25° C. Day 0): <10 | microbes remaining, wiped 1 Time ([6]; stored at 25° C. Day 7): 1.1 × 10^3 | microbes remaining, wiped 2 Times ([6]; stored at 25° C. Day 7): 3.6 × 10^2 | microbes remaining, wiped 1 Time [7, 10]: <10 | microbes remaining, wiped 2 Times [7, 10]: <10 | microbes remaining, wiped 3 Times [7, 10]: <10 | microbes remaining, wiped 1 Time [7, 11]: 1.5 × 10^3 | microbes remaining, wiped 2 Times [7, 11]: 1.0 × 10^3 | microbes remaining, wiped 3 Times [7, 11]: 2.6 × 10^2 | microbes remaining, wiped 7 Times [7, 11]: <10 | microbes in treatment sheet laid on imitation vomit ([8]; 1 sheet, Day 0 at 25° C.): <10 | microbes in treatment sheet laid on imitation vomit ([8]; 1 sheet, Day 7 at 25° C.): >10^6 | microbes in treatment sheet laid on imitation vomit ([8]; 2 sheets, Day 0 at 25° C.): <10 | microbes in treatment sheet laid on imitation vomit ([8]; 2 sheets, Day 7 at 25° C.): >10^6 | microbes in treatment sheet laid on imitation vomit ([8]; 3 sheets, Day 0 at 25° C.): <10 | microbes in treatment sheet laid on imitation vomit ([8]; 3 sheets, Day 7 at 25° C.): >10^6 | microbes in treatment sheet laid on imitation vomit ([8]; 4 sheets, Day 0 at 25° C.): <10 | microbes in treatment sheet laid on imitation vomit ([8]; 4 sheets, Day 7 at 25° C.): >10^6 | microbes in treatment sheet laid on imitation vomit ([8]; 5 sheets, Day 0 at 25° C.): <10 | microbes in treatment sheet laid on imitation vomit ([8]; 5 sheets, Day 7 at 25° C.): >10^6 | microbes in treatment sheet laid on imitation vomit ([8]; 6 sheets, Day 0 at 25° C.): <10 | microbes in treatment sheet laid on imitation vomit ([8]; 6 sheets, Day 7 at 25° C.): >10^6 | microbes in treatment sheet laid on imitation vomit ([8]; 8 sheets, Day 0 at 25° C.): <10 | microbes in treatment sheet laid on imitation vomit ([8]; 8 sheets, Day 7 at 25° C.): 1.1 × 10^4 | microbes in treatment sheet laid on imitation vomit ([8]; 10 sheets, Day 0 at 25° C.): <10 | microbes in treatment sheet laid on imitation vomit ([8]; 10 sheets, Day 7 at 25° C.): 7.1 × 10^2 | microbes in treatment sheet laid on imitation vomit ([8]; 20 sheets, Day 0 at 25° C.): <10 | microbes in treatment sheet laid on imitation vomit ([8]; 20 sheets, Day 7 at 25° C.): <10 | microbes in treatment sheet laid on imitation vomit ([8]; 30 sheets, Day 0 at 25° C.): <10 | microbes in treatment sheet laid on imitation vomit ([8]; 30 sheets, Day 7 at 25° C.): <10 | sterilization of pathogenic microbes on floor surface by wiping ([9]; day 0): could be sterilized | sterilization of pathogenic microbes on floor surface by wiping ([9]; preserved for 7 days): there were cases in which pathogenic microbes could not be sterilized
